Source: patent US8900194B2, “Microneedle devices and microneedle delivery apparatus” (3M Innovative Properties Company, priority 2002, dated 2014)

Conditions: human, 0 h

In the case of `O=[N+]([O-])OCC(CO[N+](=O)[O-])O[N+](=O)[O-]` [Nitroglycerin, nitroglycerin], the “Nitroglycerin Cumulative Flux” value is reported as 0 μg/cm^2.
